From ChEMBL document CHEMBL1806380, “Rigidized 1-aryl sulfonyl tryptamines: synthesis and pharmacological evaluation as 5-HT6 receptor ligands” (Bioorg Med Chem Lett, 2011)
Active and inactive are the calls of the source. No cut-off for these calls is given here.

Experiments:
[1] = biological target: T1, Alpha-1B adrenergic receptor (Homo sapiens) (UniProt P35368); test: Inhibition of adrenergic alpha1b receptor at 0.5 uM
T1 sequence (whole entry): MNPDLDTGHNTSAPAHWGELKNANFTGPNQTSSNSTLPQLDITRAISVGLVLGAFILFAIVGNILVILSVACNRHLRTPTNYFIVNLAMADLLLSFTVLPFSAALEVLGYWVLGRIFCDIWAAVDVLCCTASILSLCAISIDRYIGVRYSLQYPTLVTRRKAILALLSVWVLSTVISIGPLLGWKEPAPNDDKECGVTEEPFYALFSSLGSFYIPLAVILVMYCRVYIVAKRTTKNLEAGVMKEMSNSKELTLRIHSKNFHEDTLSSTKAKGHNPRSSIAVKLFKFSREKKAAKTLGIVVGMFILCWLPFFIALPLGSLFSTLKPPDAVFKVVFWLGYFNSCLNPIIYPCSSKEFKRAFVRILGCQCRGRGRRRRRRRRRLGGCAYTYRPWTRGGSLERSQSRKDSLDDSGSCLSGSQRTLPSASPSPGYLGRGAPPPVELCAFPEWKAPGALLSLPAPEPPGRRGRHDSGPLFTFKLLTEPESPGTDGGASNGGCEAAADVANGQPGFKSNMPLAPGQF

[2] = Ratio of drug level in brain to plasma in Wistar rat at 1 mg/kg, iv after 6 hrs; assay type: ADME, organism-based; design: dose 1 mg/kg, route intravenous
[3] = Half life in Wistar rat at 10 mg/kg, iv; assay type: ADME, organism-based; design: dose 10 mg/kg, route intravenous; settings: in vivo
Rattus norvegicus [4] = test: Cognitive enhancing effect against scopolamine-induced memory deficit in rat at 10 mg/kg, po by morris water maze test; assay type: functional, organism-based; design: dose 10 mg/kg
Rattus norvegicus [5] = test: Apparent volume of distribution in Wistar rat at 10 mg/kg, po; assay type: ADME, organism-based; design: dose 10 mg/kg, route oral; settings: in vivo
[6] = biological target: 5-hydroxytryptamine receptor 7 (Rattus norvegicus) (UniProt P32305); test: Binding affinity to rat 5HT7 receptor expressed in CHO cells co-expressing pCRE-Luc gene assessed as modulation of serotonin-induced intracellular cAMP level at 0.5 uM after 5 hrs by luciferase based luminescence assay; assay type: cell-based
[7] = biological target: T2, 5-hydroxytryptamine receptor 2C (Homo sapiens) (UniProt P28335); test: Inhibition of 5HT2C receptor at 0.5 uM
T2 sequence (whole entry): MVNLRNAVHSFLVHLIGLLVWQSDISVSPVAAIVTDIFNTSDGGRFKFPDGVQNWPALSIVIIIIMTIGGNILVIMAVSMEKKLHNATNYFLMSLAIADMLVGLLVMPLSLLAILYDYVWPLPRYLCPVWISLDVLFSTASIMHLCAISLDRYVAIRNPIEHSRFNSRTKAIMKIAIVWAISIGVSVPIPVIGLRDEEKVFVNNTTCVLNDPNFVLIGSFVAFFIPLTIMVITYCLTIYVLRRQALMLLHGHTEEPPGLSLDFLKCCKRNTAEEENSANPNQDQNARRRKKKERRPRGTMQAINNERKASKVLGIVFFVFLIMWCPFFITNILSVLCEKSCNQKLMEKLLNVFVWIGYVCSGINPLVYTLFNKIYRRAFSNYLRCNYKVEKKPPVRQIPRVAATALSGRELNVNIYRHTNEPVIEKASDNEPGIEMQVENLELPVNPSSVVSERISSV

Rattus norvegicus [8] = test: Cognitive enhancing effect in rat at 10 mg/kg, po after 60 mins by novel object recognition test; assay type: functional, organism-based; design: dose 10 mg/kg
[9] = Clearance in Wistar rat at 10 mg/kg, iv; assay type: ADME, organism-based; design: dose 10 mg/kg, route intravenous; settings: in vivo
[10] = Clearance in Wistar rat at 10 mg/kg, po; assay type: ADME, organism-based; design: dose 10 mg/kg, route oral; settings: in vivo
[11] = AUCt in Wistar rat at 10 mg/kg, iv; assay type: ADME, organism-based; design: dose 10 mg/kg, route intravenous; settings: plasma
[12] = biological target: Sodium-dependent dopamine transporter (Homo sapiens) (UniProt Q01959); test: Inhibition of DAT at 0.5 uM
[13] = biological target: Sodium-dependent noradrenaline transporter (Homo sapiens) (UniProt P23975); test: Inhibition of NET at 0.5 uM
[14] = biological target: 5-hydroxytryptamine receptor 2A (Homo sapiens) (UniProt P28223); test: Inhibition of 5HT2A receptor at 0.5 uM
[15] = Apparent volume of distribution in Wistar rat at 10 mg/kg, iv; assay type: ADME, organism-based; design: dose 10 mg/kg, route intravenous; settings: in vivo, read-out: Vz
[16] = biological target: T3, Muscarinic acetylcholine receptor M1 (Homo sapiens) (UniProt P11229); test: Binding affinity to human muscarinic M1 receptor expressed in CHO cells co-expressing pCRE-Luc gene assessed as modulation of acetylcholine-induced intracellular cAMP level at 0.5 uM after 5 hrs by luciferase based luminescence assay; assay type: cell-based
T3 sequence (whole entry): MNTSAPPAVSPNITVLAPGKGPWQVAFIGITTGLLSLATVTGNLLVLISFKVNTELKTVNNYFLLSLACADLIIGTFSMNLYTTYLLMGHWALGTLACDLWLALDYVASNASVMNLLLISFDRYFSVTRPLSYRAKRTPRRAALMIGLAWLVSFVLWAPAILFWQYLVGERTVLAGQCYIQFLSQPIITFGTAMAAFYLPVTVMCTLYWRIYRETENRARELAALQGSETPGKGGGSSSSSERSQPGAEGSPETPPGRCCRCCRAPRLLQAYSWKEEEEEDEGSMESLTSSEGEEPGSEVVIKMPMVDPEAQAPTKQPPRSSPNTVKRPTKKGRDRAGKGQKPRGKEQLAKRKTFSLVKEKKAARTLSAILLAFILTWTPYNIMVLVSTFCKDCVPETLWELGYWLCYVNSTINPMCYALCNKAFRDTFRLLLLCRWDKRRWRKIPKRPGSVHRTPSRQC

[17] = biological target: D(2) dopamine receptor (Homo sapiens) (UniProt P14416); test: Inhibition of dopamine D2 receptor at 0.5 uM
Cytochrome P450 3A4 = Cytochrome P450 3A4 (Homo sapiens, UniProt P08684); test: Inhibition of CYP3A4; assay type: ADME
[18] = Metabolic stability in human liver microsomes assessed as drug metabolized level after 30 mins; assay type: ADME, Microsome; settings: read-out: Activity
[19] = Cmax in Wistar rat at 10 mg/kg, iv; assay type: ADME, organism-based; design: dose 10 mg/kg, route intravenous; settings: in vivo
[20] = Cmax in Wistar rat at 10 mg/kg, po; assay type: ADME, organism-based; design: dose 10 mg/kg, route oral; settings: in vivo
Cytochrome P450 2D6 = Cytochrome P450 2D6 (Homo sapiens, UniProt P10635); test: Inhibition of CYP2D6; assay type: ADME
[21] = Half life in Wistar rat at 10 mg/kg, po; assay type: ADME, organism-based; design: dose 10 mg/kg, route oral; settings: in vivo
[22] = biological target: 5-hydroxytryptamine receptor 6 (Homo sapiens) (UniProt P50406); test: Binding affinity to human recombinant 5HT6 receptor expressed in CHO cells co-expressing pCRE-Luc gene assessed as modulation of serotonin-induced intracellular cAMP level after 4 hrs by luciferase based luminescence assay; assay type: cell-based
[23] = AUCt in Wistar rat at 10 mg/kg, po; assay type: ADME, organism-based; design: dose 10 mg/kg, route oral; settings: plasma
[24] = biological target: 5-hydroxytryptamine receptor 4 (Homo sapiens) (UniProt Q13639); test: Binding affinity to human recombinant 5HT4 receptor expressed in CHO cells co-expressing pCRE-Luc gene assessed as modulation of serotonin-induced intracellular cAMP level at 0.5 uM after 5 hrs by luciferase based luminescence assay; assay type: cell-based
[25] = Metabolic stability in rat liver microsomes assessed as drug metabolized level after 30 mins; assay type: ADME, Microsome; settings: read-out: Activity
[26] = biological target: Sodium-dependent serotonin transporter (Homo sapiens) (UniProt P31645); test: Inhibition of SERT at 0.5 uM
[27] = biological target: Histamine H1 receptor (Homo sapiens) (UniProt P35367); test: Inhibition of histamine H1 receptor at 0.5 uM
[28] = Oral bioavailability in Wistar rat at 10 mg/kg; assay type: ADME, organism-based; settings: in vivo

Chain of Sodium-dependent dopamine transporter (Homo sapiens) (Q01959 whole entry): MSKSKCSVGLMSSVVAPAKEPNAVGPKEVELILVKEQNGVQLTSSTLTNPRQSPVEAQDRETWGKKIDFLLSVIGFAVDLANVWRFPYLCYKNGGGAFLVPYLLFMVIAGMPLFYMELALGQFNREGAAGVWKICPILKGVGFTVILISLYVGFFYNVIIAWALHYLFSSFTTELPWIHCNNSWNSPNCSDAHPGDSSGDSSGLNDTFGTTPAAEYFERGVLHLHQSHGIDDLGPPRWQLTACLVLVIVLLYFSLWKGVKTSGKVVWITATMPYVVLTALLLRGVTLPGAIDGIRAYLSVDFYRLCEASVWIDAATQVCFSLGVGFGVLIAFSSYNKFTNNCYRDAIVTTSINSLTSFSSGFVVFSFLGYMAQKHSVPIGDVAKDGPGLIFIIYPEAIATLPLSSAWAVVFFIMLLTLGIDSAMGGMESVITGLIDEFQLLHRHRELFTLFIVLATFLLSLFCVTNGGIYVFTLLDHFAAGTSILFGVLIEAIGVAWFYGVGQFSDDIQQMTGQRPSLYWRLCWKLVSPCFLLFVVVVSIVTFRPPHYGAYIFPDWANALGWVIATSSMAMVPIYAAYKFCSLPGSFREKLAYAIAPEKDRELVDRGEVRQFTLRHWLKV
Chain of Histamine H1 receptor (Homo sapiens) (P35367 whole entry): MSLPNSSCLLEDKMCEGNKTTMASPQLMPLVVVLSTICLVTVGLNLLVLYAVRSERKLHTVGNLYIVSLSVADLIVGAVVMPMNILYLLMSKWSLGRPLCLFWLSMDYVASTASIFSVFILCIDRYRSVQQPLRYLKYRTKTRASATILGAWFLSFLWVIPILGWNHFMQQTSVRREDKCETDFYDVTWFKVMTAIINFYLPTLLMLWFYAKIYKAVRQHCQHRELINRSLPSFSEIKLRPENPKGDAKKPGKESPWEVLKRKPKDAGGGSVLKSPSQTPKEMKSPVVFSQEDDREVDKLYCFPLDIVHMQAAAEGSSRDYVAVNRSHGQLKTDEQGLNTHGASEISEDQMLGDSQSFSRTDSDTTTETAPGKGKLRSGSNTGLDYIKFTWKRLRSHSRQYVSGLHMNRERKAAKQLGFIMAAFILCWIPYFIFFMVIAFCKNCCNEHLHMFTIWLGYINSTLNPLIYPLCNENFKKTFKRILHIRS
Chain of 5-hydroxytryptamine receptor 6 (Homo sapiens) (P50406 whole entry): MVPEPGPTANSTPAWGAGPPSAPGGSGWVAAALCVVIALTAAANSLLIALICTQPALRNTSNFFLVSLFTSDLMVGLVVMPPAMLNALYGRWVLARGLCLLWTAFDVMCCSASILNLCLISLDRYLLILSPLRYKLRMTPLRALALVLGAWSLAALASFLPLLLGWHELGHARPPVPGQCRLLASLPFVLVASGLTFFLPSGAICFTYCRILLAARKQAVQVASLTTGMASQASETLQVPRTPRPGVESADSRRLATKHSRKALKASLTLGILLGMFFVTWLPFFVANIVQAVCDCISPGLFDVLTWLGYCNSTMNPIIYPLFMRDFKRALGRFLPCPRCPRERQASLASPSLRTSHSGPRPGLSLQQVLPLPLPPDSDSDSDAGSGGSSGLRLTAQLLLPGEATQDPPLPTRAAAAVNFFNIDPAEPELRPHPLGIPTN
Chain of Cytochrome P450 3A4 (P08684 whole entry): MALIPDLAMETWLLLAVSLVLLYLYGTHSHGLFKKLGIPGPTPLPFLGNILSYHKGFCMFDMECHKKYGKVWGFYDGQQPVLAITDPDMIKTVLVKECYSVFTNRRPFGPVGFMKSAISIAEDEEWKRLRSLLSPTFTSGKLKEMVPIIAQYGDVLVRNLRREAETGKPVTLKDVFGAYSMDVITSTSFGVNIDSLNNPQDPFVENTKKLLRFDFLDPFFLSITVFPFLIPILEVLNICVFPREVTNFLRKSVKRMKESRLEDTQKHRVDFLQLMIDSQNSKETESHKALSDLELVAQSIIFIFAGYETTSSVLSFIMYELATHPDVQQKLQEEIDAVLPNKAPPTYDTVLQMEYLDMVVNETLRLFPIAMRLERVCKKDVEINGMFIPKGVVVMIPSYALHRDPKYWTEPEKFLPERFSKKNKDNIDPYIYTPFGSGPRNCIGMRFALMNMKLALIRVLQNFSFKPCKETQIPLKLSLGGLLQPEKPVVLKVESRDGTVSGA
Chain of 5-hydroxytryptamine receptor 4 (Homo sapiens) (Q13639 whole entry): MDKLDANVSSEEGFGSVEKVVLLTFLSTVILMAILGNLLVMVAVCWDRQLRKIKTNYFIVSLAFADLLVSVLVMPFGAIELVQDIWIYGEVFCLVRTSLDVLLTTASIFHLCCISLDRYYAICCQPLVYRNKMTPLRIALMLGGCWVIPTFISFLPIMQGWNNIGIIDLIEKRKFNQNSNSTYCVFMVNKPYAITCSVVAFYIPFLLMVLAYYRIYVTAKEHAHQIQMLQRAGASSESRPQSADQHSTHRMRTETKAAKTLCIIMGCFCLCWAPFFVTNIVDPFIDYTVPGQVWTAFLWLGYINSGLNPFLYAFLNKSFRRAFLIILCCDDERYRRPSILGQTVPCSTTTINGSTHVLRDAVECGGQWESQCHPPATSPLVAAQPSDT
Chain of D(2) dopamine receptor (Homo sapiens) (P14416 whole entry): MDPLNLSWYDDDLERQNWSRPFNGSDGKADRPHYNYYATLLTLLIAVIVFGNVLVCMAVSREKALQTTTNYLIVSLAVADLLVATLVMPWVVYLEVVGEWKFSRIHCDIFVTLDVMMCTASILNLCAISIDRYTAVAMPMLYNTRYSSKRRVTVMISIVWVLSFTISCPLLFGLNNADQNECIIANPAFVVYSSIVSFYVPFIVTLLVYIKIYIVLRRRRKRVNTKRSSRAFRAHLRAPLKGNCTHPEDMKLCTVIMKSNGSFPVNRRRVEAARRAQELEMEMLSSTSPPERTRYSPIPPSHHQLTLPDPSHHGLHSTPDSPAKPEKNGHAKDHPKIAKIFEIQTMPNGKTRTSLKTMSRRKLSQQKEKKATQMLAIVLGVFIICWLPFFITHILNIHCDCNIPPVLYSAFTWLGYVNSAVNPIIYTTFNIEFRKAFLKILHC
Chain of Sodium-dependent serotonin transporter (Homo sapiens) (P31645 whole entry, looked up): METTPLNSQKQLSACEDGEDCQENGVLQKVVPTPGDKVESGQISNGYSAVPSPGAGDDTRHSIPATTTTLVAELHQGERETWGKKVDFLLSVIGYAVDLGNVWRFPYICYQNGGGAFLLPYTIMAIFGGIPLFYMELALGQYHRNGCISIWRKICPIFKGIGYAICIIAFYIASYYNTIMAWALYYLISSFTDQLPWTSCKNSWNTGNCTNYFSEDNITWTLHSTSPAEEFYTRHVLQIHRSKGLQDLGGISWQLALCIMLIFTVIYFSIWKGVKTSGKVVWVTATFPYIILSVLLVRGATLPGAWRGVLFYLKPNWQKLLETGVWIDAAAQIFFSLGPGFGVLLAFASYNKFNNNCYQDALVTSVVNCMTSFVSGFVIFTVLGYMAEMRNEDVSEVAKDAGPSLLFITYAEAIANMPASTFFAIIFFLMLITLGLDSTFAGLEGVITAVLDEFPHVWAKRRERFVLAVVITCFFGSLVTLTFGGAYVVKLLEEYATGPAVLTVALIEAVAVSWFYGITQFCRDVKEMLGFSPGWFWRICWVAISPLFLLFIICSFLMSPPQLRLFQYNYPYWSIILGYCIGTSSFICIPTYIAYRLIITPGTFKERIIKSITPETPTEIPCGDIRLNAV
Chain of Sodium-dependent noradrenaline transporter (Homo sapiens) (P23975 whole entry): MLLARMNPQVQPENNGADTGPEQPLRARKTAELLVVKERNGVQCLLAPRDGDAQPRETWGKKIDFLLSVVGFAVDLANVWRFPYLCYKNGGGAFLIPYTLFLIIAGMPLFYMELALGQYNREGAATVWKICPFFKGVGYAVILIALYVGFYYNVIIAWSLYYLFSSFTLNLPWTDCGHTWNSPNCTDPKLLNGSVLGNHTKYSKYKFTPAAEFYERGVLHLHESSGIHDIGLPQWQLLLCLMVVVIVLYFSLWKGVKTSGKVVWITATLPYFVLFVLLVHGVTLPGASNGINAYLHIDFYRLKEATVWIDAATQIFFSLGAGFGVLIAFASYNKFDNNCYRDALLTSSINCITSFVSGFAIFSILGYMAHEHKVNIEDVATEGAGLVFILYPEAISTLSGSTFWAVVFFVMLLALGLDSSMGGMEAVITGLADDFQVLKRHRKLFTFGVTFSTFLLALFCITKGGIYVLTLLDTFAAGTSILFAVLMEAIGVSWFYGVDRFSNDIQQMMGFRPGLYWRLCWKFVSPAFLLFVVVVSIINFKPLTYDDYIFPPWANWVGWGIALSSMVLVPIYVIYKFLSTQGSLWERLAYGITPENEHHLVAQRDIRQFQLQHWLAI
Chain of 5-hydroxytryptamine receptor 2A (Homo sapiens) (P28223 whole entry): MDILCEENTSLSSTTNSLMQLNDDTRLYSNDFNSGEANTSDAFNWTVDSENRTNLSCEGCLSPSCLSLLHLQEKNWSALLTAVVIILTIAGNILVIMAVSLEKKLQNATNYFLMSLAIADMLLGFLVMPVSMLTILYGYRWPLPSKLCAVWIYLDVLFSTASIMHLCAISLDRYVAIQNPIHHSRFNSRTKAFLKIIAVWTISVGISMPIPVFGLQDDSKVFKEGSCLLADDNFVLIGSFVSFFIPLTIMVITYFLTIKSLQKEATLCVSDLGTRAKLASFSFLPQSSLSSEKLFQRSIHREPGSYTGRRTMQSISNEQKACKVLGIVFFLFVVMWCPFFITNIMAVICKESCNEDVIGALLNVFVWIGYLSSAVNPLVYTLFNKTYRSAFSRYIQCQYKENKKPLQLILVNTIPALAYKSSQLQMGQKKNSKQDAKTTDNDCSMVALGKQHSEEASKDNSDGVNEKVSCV

- inhibition [1]: < 50%
- Kp at 6 h [2]: 1.79
- half-life [3]: 5.48 h
- Vz (Rattus norvegicus [5]): 196.287 L/kg
- inhibition [6]: < 50%
- inhibition [7]: < 50%
- clearance [9]: 72.5 mL/min/kg
- CL/F [10]: 585 mL/min/kg
- AUC(0-t) [11]: 2320 ng·h/mL
- inhibition [12]: < 50%
- inhibition [13]: < 50%
- inhibition [14]: < 50%
- Vd [15]: 34.9 L/kg
- inhibition [16]: < 50%
- inhibition [17]: < 50%
- IC50 (Cytochrome P450 3A4): 14.7 µM
- metabolised at 0.5 h [18]: 43%
- Cmax [19]: 2690 ng/mL
- Cmax [20]: 105 ng/mL
- IC50 (Cytochrome P450 2D6): 21.1 µM
- half-life [21]: 3.75 h
- Kb [22]: 0.0001 µM
- AUC(0-t) [23]: 268 ng·h/mL
- inhibition [24]: < 50%
- metabolised at 0.5 h [25]: 70%
- inhibition [26]: < 50%
- inhibition [27]: < 50%
- bioavailability [28]: 12%
Structure (SMILES): CN1CC(Cl)=C(c2cn(S(=O)(=O)c3ccccc3)c3ccccc23)C1
- Activity (Rattus norvegicus [4]): Active
- Activity (Rattus norvegicus [8]): Active
